Experimental data as given in ChEMBL document CHEMBL1151103, “Studies on cytotoxic constituents in pericarps of Mallotus japonicus, Part III” (1988).
Values after ≈ are worked out from the molar mass of the structure shown.

Test system: KB
Test: Cytotoxicity against human KB cells
Assay type: functional
Conditions: read-out: ED50 (the source's name)

`COc1c(C)c(O)c(C(C)=O)c(OC)c1Cc1c(O)c(C(=O)C(C)C)c2c(c1OC)C=CC(C)(C)O2` and `CCCC(=O)c1c(O)c(Cc2c(OC)c(C)c(O)c(C(C)=O)c2OC)c(OC)c2c1OC(C)(C)C=C2` are within 1.5-fold of each other in EC50: 5.5 µg/mL (≈ 11 µM) for the first, 5.9 µg/mL (≈ 11.8 µM) for the second.

`CCCC(=O)c1c2c(c(OC(C)=O)c(Cc3c(OC)c(C)c(OC(C)=O)c(C(C)=O)c3OC(C)=O)c1OC(C)=O)C=CC(C)(C)O2` and `COc1c(C)c(OC(C)=O)c(C(C)=O)c(OC(C)=O)c1Cc1c(OC(C)=O)c2c(c(C(=O)C(C)C)c1OC(C)=O)OC(C)(C)C=C2` are within 1.5-fold of each other in EC50: 2.55 µg/mL (≈ 3.99 µM) for the first, 2.65 µg/mL (≈ 4.15 µM) for the second.

Going from `CCCC(=O)c1c(O)c(Cc2c(O)c(C(C)=O)c(O)c(C)c2OC)c(O)c2c1OC(C)(C)C=C2` [BUTYRYLMALLOTOCHROMENE] to `COc1c(C)c(O)c(C(C)=O)c(O)c1Cc1c(O)c2c(c(C(=O)C(C)C)c1O)OC(C)(C)C=C2` [ISOBUTYRYLMALLOTOCHROMENE], the EC50 falls from 3.3 µg/mL (≈ 7.01 µM) to 0.4 µg/mL (≈ 0.85 µM) (8.2-fold).
